Laboratory results as given in US8193221B2, “Insecticidal compounds” (Syngenta Crop Protection LLC, priority 2007, dated 2012).
Read-outs that look alike come from different tables or passages of the source.

Tests used:
Format in all cases: in vivo
Spodoptera littoralis = Spodoptera littoralis (Egyptian cotton leafworm) cotton leaf disc spray test; conditions: for pest or weed control at 200 ppm: foliar, 72 h, read-out: control of Spodoptera littoralis; for damage to the test organisms: same protocol, 200 ppm
Excerpt: Spodoptera littoralis (Egyptian Cotton Leafworm):
Cotton leaf discs were placed on agar in a 24-well microtiter plate and sprayed with test solutions at an application rate of 200 ppm. After drying, the leaf discs were infested with 5 L1 larvae. The samples were checked for mortality, feeding behavior, and growth regulation 3 days after treatment (DAT).

Heliothis virescens = Heliothis virescens (tobacco budworm) egg test on artificial diet; conditions: same protocol, 200 ppm
Method: Heliothis virescens (Tobacco Budworm):
Eggs (0-24 h old) were placed in 24-well microtiter plate on artificial diet and treated with test solutions at an application rate of 200 ppm (concentration in well 18 ppm) by pipetting. After an incubation period of 4 days, samples were checked for egg mortality, larval mortality, and growth regulation.

Plutella xylostella = Plutella xylostella (diamond back moth) larval test on artificial diet; conditions: same protocol, 200 ppm
Method: Plutella xylostella (Diamond Back Moth):
(§1) 24-well microtiter plate (MTP) with artificial diet was treated with test solutions at an application rate of 200 ppm (concentration in well 18 ppm) by pipetting. After drying, the MTP's were infested with L2 larvae (7-12 per well). After an incubation period of 6 days, samples were checked for larval mortality and growth regulation.

Diabrotica balteata = Diabrotica balteata (corn root worm) larval test on artificial diet; conditions: same protocol, 200 ppm
Method: Diabrotica balteata (Corn Root Worm):
as §1, with “A 24-well” for “24-well”, “(6-10” for “(7-12”, “5” for “6”

Thrips tabaci = Thrips tabaci (onion thrips) sunflower leaf disc spray test; conditions: same protocol, 200 ppm
Method: Thrips tabaci (Onion Trips):
Sunflower leaf discs were placed on agar in a 24-well microtiter plate and sprayed with test solutions at an application rate of 200 ppm. After drying, the leaf discs were infested with an […] population of mixed ages. After an incubation period of 7 days, samples were checked for mortality.

Tetranychus urticae = Tetranychus urticae (two-spotted spider mite) bean leaf disc spray test; conditions: same protocol, 200 ppm
Excerpt: Tetranychus urticae (Two-Spotted Spider Mite):
Bean leaf discs on agar in 24-well microtiter plates were sprayed with test solutions at an application rate of 200 ppm. After drying, the leaf discs are infested with mite populations of mixed ages. 8 days later, discs are checked for egg mortality, larval mortality, and adult mortality.

[1] = 200 ppm sprayed on cotton leaf discs, L1 larvae, mortality, feeding behavior, growth regulation 3 DAT

## [H]/N=C(\NOCCC)c1ccc(C2=NOC(c3cc(Cl)cc(Cl)c3)(C(F)(F)F)C2)cc1C (centres unmarked) [Compound A27]
Spodoptera littoralis; [1]
  pest or weed control at 200 ppm: ≥ 80%

## [H]/N=C(\NOCC)c1ccc(C2=NOC(c3cc(Cl)cc(Cl)c3)(C(F)(F)F)C2)cc1C (centres unmarked) [Compound A4]
Spodoptera littoralis; [1]
  pest or weed control at 200 ppm: ≥ 80%

## [H]/N=C(\NOCC#CC)c1ccc(C2=NOC(c3cc(Cl)cc(Cl)c3)(C(F)(F)F)C2)cc1C (centres unmarked) [Compound A25]
Spodoptera littoralis; [1]
  pest or weed control at 200 ppm: ≥ 80%

## COc1ccc(C(=O)CONC(=N)c2ccc(C3=NOC(c4cc(Cl)cc(Cl)c4)(C(F)(F)F)C3)cc2C)cc1 (centres unmarked) [Compound A28]
Spodoptera littoralis
  damage to the test organisms: little or no damage
Heliothis virescens
  damage to the test organisms: little or no damage
Plutella xylostella
  damage to the test organisms: little or no damage
Diabrotica balteata
  damage to the test organisms: little or no damage
Thrips tabaci
  damage to the test organisms: little or no damage
Tetranychus urticae
  damage to the test organisms: little or no damage

## Cc1cc(C2=NOC(c3cc(Cl)cc(Cl)c3)(C(F)(F)F)C2)ccc1C(=N)NOCc1sc(Cl)nc1C(F)(F)F (centres unmarked) [Compound A32]
Spodoptera littoralis
  damage to the test organisms: little or no damage
Heliothis virescens
  damage to the test organisms: little or no damage
Plutella xylostella
  damage to the test organisms: little or no damage
Diabrotica balteata
  damage to the test organisms: little or no damage
Thrips tabaci
  damage to the test organisms: little or no damage
Tetranychus urticae
  damage to the test organisms: little or no damage

## Cc1cc(C2=NOC(c3cc(Cl)cc(Cl)c3)(C(F)(F)F)C2)ccc1C(=N)NOC(C)C(=O)Nc1ccccc1 (centres unmarked) [Compound A24]
Spodoptera littoralis
  damage to the test organisms: little or no damage
Heliothis virescens
  damage to the test organisms: little or no damage
Plutella xylostella
  damage to the test organisms: little or no damage
Diabrotica balteata
  damage to the test organisms: little or no damage
Thrips tabaci
  damage to the test organisms: little or no damage
Tetranychus urticae
  damage to the test organisms: little or no damage

## [H]/N=C(\NOC)c1ccc(C2=NOC(c3cc(Cl)cc(Cl)c3)(C(F)(F)F)C2)cc1C (centres unmarked) [Compound A3]
Spodoptera littoralis; [1]
  pest or weed control at 200 ppm: ≥ 80%

## [H]/N=C(\NOCCCC)c1ccc(C2=NOC(c3cc(Cl)cc(Cl)c3)(C(F)(F)F)C2)cc1C (centres unmarked) [Compound A6]
Spodoptera littoralis; [1]
  pest or weed control at 200 ppm: ≥ 80%

## [H]/N=C(\NOCC=C)c1ccc(C2=NOC(c3cc(Cl)cc(Cl)c3)(C(F)(F)F)C2)cc1C (centres unmarked) [Compound A5]
Spodoptera littoralis; [1]
  pest or weed control at 200 ppm: ≥ 80%

## Cc1cc(C2=NOC(c3cc(Cl)cc(Cl)c3)(C(F)(F)F)C2)ccc1/C(N)=N/O (centres unmarked) [Compound A1, 4-[5-(3,5-dichloro-phenyl)-5-trifluoromethyl-4,5-dihydro-isoxazol-3-yl]-N-hydroxy-2-methyl-benzamidine]
Spodoptera littoralis; [1]
  pest or weed control at 200 ppm: ≥ 80%

## CCOC(=O)/C=C/CONC(=N)c1ccc(C2=NOC(c3cc(Cl)cc(Cl)c3)(C(F)(F)F)C2)cc1C (centres unmarked) [Compound A13]
Spodoptera littoralis
  damage to the test organisms: little or no damage
Heliothis virescens
  damage to the test organisms: little or no damage
Plutella xylostella
  damage to the test organisms: little or no damage
Diabrotica balteata
  damage to the test organisms: little or no damage
Thrips tabaci
  damage to the test organisms: little or no damage
Tetranychus urticae
  damage to the test organisms: little or no damage

## Cc1cc(C2=NOC(c3cc(Cl)cc(Cl)c3)(C(F)(F)F)C2)ccc1C(=N)NOCC1CCCCO1 (centres unmarked) [Compound A14]
Spodoptera littoralis
  damage to the test organisms: little or no damage
Heliothis virescens
  damage to the test organisms: little or no damage
Plutella xylostella
  damage to the test organisms: little or no damage
Diabrotica balteata
  damage to the test organisms: little or no damage
Thrips tabaci
  damage to the test organisms: little or no damage
Tetranychus urticae
  damage to the test organisms: little or no damage

## C#CCONC(=N)c1ccc(C2=NOC(c3cc(Cl)cc(Cl)c3)(C(F)(F)F)C2)cc1C (centres unmarked) [Compound A2, 4-[5-(3,5-dichloro-phenyl)-5-trifluoromethyl-4,5-dihydro-isoxazol-3-yl]-2-methyl-N-prop-2-ynyloxy-benzamidine]
Spodoptera littoralis
  pest or weed control at 200 ppm: ≥ 80%

## Cc1cc(C2=NOC(c3cc(Cl)cc(Cl)c3)(C(F)(F)F)C2)ccc1C(=N)NOCC1CCCCC1 (centres unmarked) [Compound A26]
Spodoptera littoralis
  damage to the test organisms: little or no damage
Heliothis virescens
  damage to the test organisms: little or no damage
Plutella xylostella
  damage to the test organisms: little or no damage
Diabrotica balteata
  damage to the test organisms: little or no damage
Thrips tabaci
  damage to the test organisms: little or no damage
Tetranychus urticae
  damage to the test organisms: little or no damage

## CCOC(=O)c1ccc(CONC(=N)c2ccc(C3=NOC(c4cc(Cl)cc(Cl)c4)(C(F)(F)F)C3)cc2C)o1 (centres unmarked) [Compound A33]
Spodoptera littoralis
  damage to the test organisms: little or no damage
Heliothis virescens
  damage to the test organisms: little or no damage
Plutella xylostella
  damage to the test organisms: little or no damage
Diabrotica balteata
  damage to the test organisms: little or no damage
Thrips tabaci
  damage to the test organisms: little or no damage
Tetranychus urticae
  damage to the test organisms: little or no damage

## Cc1cc(C2=NOC(c3cc(Cl)cc(Cl)c3)(C(F)(F)F)C2)ccc1C(=N)NOCc1cc(Cl)cc2c1OCOC2 (centres unmarked) [Compound A19]
Spodoptera littoralis
  damage to the test organisms: little or no damage
Heliothis virescens
  damage to the test organisms: little or no damage
Plutella xylostella
  damage to the test organisms: little or no damage
Diabrotica balteata
  damage to the test organisms: little or no damage
Thrips tabaci
  damage to the test organisms: little or no damage
Tetranychus urticae
  damage to the test organisms: little or no damage
